Laboratory results reported in patent US9617237B2, “Partially saturated tricyclic compounds and methods of making and using same” (Zafgen, Inc., priority 2011, dated 2017).

Each compound was assayed against T1, recombinant human MetAP2 (Homo sapiens, UniProt P50579) (assay: Inhibition of recombinant human MetAP2 activity (fluorescence, MAS substrate, amino acid oxidase/Amplex red)). Details: manganese enzyme; 0.75 mM Methionine-Alanine-Serine (MAS) substrate; 30 minutes at 25° C.; pH 7.5; 1% DMSO.
T1 construct: made in house; host or cells: Sf9 insect cells
Format: biochemical
Description: Compounds are tested for their capacity to inhibit recombinant human MetAP2 activity using the following assay.
Human recombinant MetAP2 expressed in Sf9 cells followed by affinity purification and EDTA treatment to remove endogenous active site cation was dialysed against MnCl2 to produce the manganese enzyme used in the assay. The assay was carried out for 30 minutes at 25° C. in 50 mM HEPES buffer containing 100 mM NaCl, pH 7.5 the presence of 0.75 mM Methionine-Alanine-Serine (MAS) substrate and 50 μg/ml amino acid oxidase using a dilution of purified MetAP2 giving >3-fold signal: noise. Cleavage of the substrate by MetAP2 and oxidation of free methionine by amino acid oxidase was detected and quantified using fluorescence generated by Amplex red (10-acetyl-3,7-dihydroxyphenoxazine) in combination with horseradish peroxidase which detects H2O2 released during the oxidation step. The fluorescent signal was detected using a multiwell fluorimeter. Compounds were diluted in DMSO prior to addition to assay buffer, the final DMSO concentration in the assay being 1%.
IC50 values are calculated using the XLfit software package (version 2.0.5).

T1 sequence (P50579 whole entry): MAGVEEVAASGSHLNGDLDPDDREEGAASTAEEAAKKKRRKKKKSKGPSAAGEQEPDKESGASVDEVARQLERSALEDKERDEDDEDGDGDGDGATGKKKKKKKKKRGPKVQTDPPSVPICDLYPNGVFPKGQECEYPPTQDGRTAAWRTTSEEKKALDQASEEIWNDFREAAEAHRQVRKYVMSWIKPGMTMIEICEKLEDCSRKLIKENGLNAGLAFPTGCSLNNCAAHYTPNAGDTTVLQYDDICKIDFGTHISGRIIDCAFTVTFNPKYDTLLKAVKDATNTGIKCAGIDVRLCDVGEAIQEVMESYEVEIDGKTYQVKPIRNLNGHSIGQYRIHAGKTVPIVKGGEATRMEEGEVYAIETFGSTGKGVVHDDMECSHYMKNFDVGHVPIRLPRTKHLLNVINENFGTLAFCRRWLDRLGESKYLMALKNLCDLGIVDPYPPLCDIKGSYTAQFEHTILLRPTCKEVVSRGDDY

| IC50 | Compound |
| --- | --- |
| < 50 nM | CCN(CC)CCCc1cc(F)ccc1S(=O)(=O)Nc1ccc2c(c1C(=O)O)OC[C@@H]1C[C@H]21 [(1aR,7bS)-5-[2-(3-Diethylaminopropyl)-4-fluorobenzenesulfonyl-amino]-1,1a,2,7b-tetrahydrocyclopropa[c]chromene-4-carboxylic acid] |
| 50 to 500 nM | CCN1CC[C@@H](OCc2cc(F)ccc2S(=O)(=O)Nc2ccc3c(c2C(=O)O)OC[C@@H]2C[C@H]32)C1 [(1aR,7bS)-5-[2-((R)-1-Ethylpyrrolidin-3-yloxymethyl)-4-fluoro-benzenesulfonylamino]-1,1a,2,7b-tetrahydrocyclopropa-[c]chromene-4-carboxylic acid] |
| 50 to 500 nM | CCN1CC[C@H](OCc2cc(F)ccc2S(=O)(=O)Nc2ccc3c(c2C(=O)O)OC[C@@H]2C[C@H]32)C1 [(1aR,7bS)-5-[2-((S)-1-Ethylpyrrolidin-3-yloxymethyl)-4-fluoro-benzenesulfonylamino]-1,1a,2,7b-tetrahydrocyclopropa-[c]chromene-4-carboxylic acid] |
| 50 to 500 nM | CCN1CCC[C@H]1CCc1cc(F)ccc1S(=O)(=O)Nc1ccc2c(c1C(=O)O)OC[C@@H]1C[C@H]21 [(1aR,7bS)-5-{2-[2-((R)-1-Ethylpyrrolidin-2-yl)ethyl]-4-fluorobenzenesulfonyl-amino}-1,1a,2,7b-tetrahydrocyclopropa-[c]chromene-4-carboxylic acid] |
| 50 to 500 nM | CCN(CC)CCCCc1cc(F)ccc1S(=O)(=O)Nc1ccc2c(c1C(=O)O)OCC1CC21 (stereo not drawn) [(1aRS,7bSR)-5-[2((Z)-4-Diethylaminobutyl)-4-fluorobenzenesulfonylamino]-1,1a,2,7b-tetrahydrocyclopropa[c]chromene-4-carboxylic acid] |
| < 50 nM | CCN(CC)CCCNc1ccccc1S(=O)(=O)Nc1ccc2c(c1C(=O)O)OCC1CC21 (stereo not drawn) [(1aRS,7bSR)-5-[2-(3-N,N,-Diethylaminopropylamino)benzene-sulfonylamino]-1,1a,2,7b-tetrahydrocyclopropa[c]chromene-4-carboxylic acid] |
| 50 to 500 nM | O=C(O)c1c(NS(=O)(=O)c2ccc(F)cc2/C=C\CNN2CC[C@H](O)C2)ccc2c1OC[C@@H]1C[C@H]21 [(1aRS,7bSR)-5-{2[(Z)-3-((S)-3-hydroxypyrrolidin-1-y)aminoprop-1-enyl]-4-fluorobenzenesulfonylamino}-1,1a,2,7b-tetrahydrocyclopropa[c]chromene-4-carboxylic acid] |
| 50 to 500 nM | O=C(O)c1c(NS(=O)(=O)c2ccc(F)cc2CCCN2CCC2)ccc2c1OCC1CC21 (stereo not drawn) [(1aRS,7bSR)-5-{2[(Z)-3-(Azetidin-1-yl)propyl]-4-fluorobenzenesulfonylamino}-1,1a,2,7b-tetrahydrocyclopropa[c]chromene-4-carboxylic acid] |
| 50 to 500 nM | CCN(CC)C/C=C\c1cc(F)ccc1S(=O)(=O)Nc1ccc2c(c1C(=O)O)OC[C@H]1C[C@@H]21 [(1aS,7bR) 5-[2-((Z)-3-Diethylaminoprop-1-enyl)-4-fluorobenzenesulfonyl-amino]-1,1a,2,7b-tetrahydrocyclopropa[c]chromene-4-carboxylic acid] |

| Compound | IC50 |
| --- | --- |
| (1aRS,7bSR)-5-{2[(Z)-3-((R)-3-Hydroxypyrrolidin-1-yl)aminoprop-1-enyl]-4-fluorobenzene-sulfonylamino}-1,1a,2,7b-tetrahydro-cyclopropa[c]chromene-4-carboxylic acid | 50 to 500 nM |
